Assay results reported in US9169260B2 (MERCK SHARP & DOHME CORP., priority 2011, dated 2015).

Target: GST tagged IRAK-4 (Homo sapiens (Human), UniProt Q9NWZ3)
Test: IRAK-4 Kinase Assay (IMAP fluorescence polarization)
Format: biochemical
Details: 100 μM ATP, 30 minutes at 25° C.
Method in brief: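 Activity was read by IMAP fluorescence polarization, where phosphopeptide binding to M(III) nanoparticles raises FP. The 30-minute, 25° C reaction used 100 μM ATP, 100 nM RP7030 substrate and 0.5 nM GST-IRAK-4 in pH 7.2 Tris buffer with MgCl2, DTT and Tween 20.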

Chain of GST tagged IRAK-4 (Q9NWZ3 whole entry): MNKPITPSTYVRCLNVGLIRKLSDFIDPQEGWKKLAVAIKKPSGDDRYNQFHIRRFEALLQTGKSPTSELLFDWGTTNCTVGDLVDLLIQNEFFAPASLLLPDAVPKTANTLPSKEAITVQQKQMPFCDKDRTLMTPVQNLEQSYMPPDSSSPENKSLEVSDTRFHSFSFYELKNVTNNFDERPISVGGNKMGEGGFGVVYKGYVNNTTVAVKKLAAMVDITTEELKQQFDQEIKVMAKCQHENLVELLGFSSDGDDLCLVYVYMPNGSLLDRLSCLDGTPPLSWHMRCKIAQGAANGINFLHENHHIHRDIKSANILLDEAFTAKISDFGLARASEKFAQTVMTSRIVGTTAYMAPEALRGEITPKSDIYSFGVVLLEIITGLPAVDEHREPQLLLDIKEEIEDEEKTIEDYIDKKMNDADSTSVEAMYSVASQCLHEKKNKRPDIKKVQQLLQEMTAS

| IC50 | IC50 (μM) | Structure (SMILES) |
| --- | --- | --- |
|  | < 1 µM | Cc1ccc(-n2nc(C3CCN(S(=O)(=O)Cc4ccncc4)CC3)cc2NC(=O)c2cnn3cccnc23)cc1 [Example 358, N-[1-(4-methylphenyl)-3-{1-[(pyridin-4-ylmethyl)sulfonyl]piperidin-4-yl}-1H-pyrazol-5-yl]pyrazolo[1,5-a]pyrimidine-3-carboxamide] |
|  | < 1 µM | COc1ccc(S(=O)(=O)N2CCC(c3cc(NC(=O)c4cnn5cccnc45)n(-c4ccc(C)cc4)n3)CC2)cc1OC [Example 359, N-[3-{1-[(3,4-dimethoxyphenyl)sulfonyl]piperidin-4-yl}-1-(4-methylphenyl)-1H-pyrazol-5-yl]pyrazolo[1,5-a]pyrimidine-3-carboxamide] |
|  | < 1 µM | Cc1ccc(-n2nc(-c3ccc(S(C)(=O)=O)nc3)cc2NC(=O)c2cnn3cccnc23)cc1 [Example 351, N-{1-(4-methylphenyl)-3-[6-(methylsulfonyl)pyridin-3-yl]-1H-pyrazol-5-yl}pyrazolo[1,5-a]pyrimidine-3-carboxamide] |
|  | < 1 µM | COc1ccc(S(=O)(=O)N2CCC(c3cc(NC(=O)c4cnn5cccnc45)n(-c4ccc(C)cc4)n3)CC2)cn1 [Example 389, N-[3-{1-[(6-methoxypyridin-3-yl)sulfonyl]piperidin-4-yl}-1-(4-methylphenyl)-1H-pyrazol-5-yl]pyrazolo[1,5-a]pyrimidine-3-carboxamide] |
| < 0.1 µM |  | CCCN1CCC(c2cc(NC(=O)c3cnn4cccnc34)n(-c3ccc(C)cn3)n2)CC1 [Example 280, N-[1-(5-methylpyridin-2-yl)-3-(1-propylpiperidin-4-yl)-1H-pyrazol-5-yl]pyrazolo[1,5-a]pyrimidine-3-carboxamide] |
|  | < 1 µM | Cc1ccc(-n2nc(C3CCN(S(=O)(=O)c4ccc(C#N)cc4)CC3)cc2NC(=O)c2cnn3cccnc23)cc1 [Example 380, N-[3-{1-[(4-cyanophenyl)sulfonyl]piperidin-4-yl}-1-(4-methylphenyl)-1H-pyrazol-5-yl]pyrazolo[1,5-a]pyrimidine-3-carboxamide] |
|  | < 1 µM | Cc1ccc(-n2nc(-c3conc3C)cc2NC(=O)c2cnn3cccnc23)cc1 [Example 334, N-[3-(3-methylisoxazol-4-yl)-1-(4-methylphenyl)-1H-pyrazol-5-yl]pyrazolo[1,5-a]pyrimidine-3-carboxamide] |
|  | < 1 µM | CCN(CC)S(=O)(=O)c1ccc(-c2cc(NC(=O)c3cnn4cccnc34)n(-c3ccc(C)cc3)n2)c(C)c1 [Example 340, N-{3-[4-(diethylsulfamoyl)-2-methylphenyl]-1-(4-methylphenyl)-1H-pyrazol-5-yl}pyrazolo[1,5-a]pyrimidine-3-carboxamide] |
|  | < 1 µM | Cc1ccc(-n2nc(C3CN(Cc4cc(C)on4)C3)cc2NC(=O)c2cnn3cccnc23)cc1 [Example 311, N-[3-{1-[(5-methylisoxazol-3-yl)methyl]azetidin-3-yl]-1-(4-methylphenyl)-1H-pyrazol-5-yl}pyrazolo[1,5-a]pyrimidine-3-carboxamide] |
|  | < 1 µM | COc1ncc(CN2CC(c3cc(NC(=O)c4cnn5cccnc45)n(-c4ccc(C)cc4)n3)C2)cn1 [Example 317, N-[3-{1-[(2-methoxypyrimidin-5-yl)methyl]azetidin-3-yl}-1-(4-methylphenyl)-1H-pyrazol-5-yl]pyrazolo[1,5-a]pyrimidine-3-carboxamide] |
| < 0.1 µM |  | CNS(=O)(=O)c1ccc(-c2cc(NC(=O)c3cnn4cccnc34)n(-c3ccc(C)cc3)n2)cc1 [Example 347, N-{1-(4-methylphenyl)-3-[4-(methylsulfamoyl)phenyl]-1H-pyrazol-5-yl}pyrazolo[1,5-a]pyrimidine-3-carboxamide] |

Second part, the compound before the results:

| Structure (SMILES) | IC50 | IC50 (μM) |
| --- | --- | --- |
| CC(C)N1CCC(c2cc(NC(=O)c3cnn4cccnc34)n(-c3ccc(C4CC4)cc3)n2)CC1 [Example 55, N-(1-(4-cyclopropylphenyl)-3-(1-isopropylpiperidin-4-yl)-1H-pyrazol-5-yl)pyrazolo[1,5-a]pyrimidine-3-carboxamide] | < 0.1 µM |  |
| Cc1ccc(-n2nc(C3CCN(C4CCN(c5ccc(F)cc5)C4)CC3)cc2NC(=O)c2cnn3cccnc23)nc1 (centres unmarked) [Example 266, N-[3-{1-[1-(4-fluorophenyl)pyrrolidin-3-yl]piperidin-4-yl]-1-(5-methylpyridin-2-yl)-1H-pyrazol-5-yl}pyrazolo-[1,5-a]pyrimidine-3-carboxamide] | < 0.1 µM |  |
| CC(=O)c1ccc(-n2nc(C3CCN(S(C)(=O)=O)CC3)cc2NC(=O)c2cnn3cccnc23)cc1 [Example 90, N-(1-(4-acetylphenyl)-3-(1-(methylsulfonyl)piperidin-4-yl)-1H-pyrazol-5-yl)pyrazolo[1,5-a]pyrimidine-3-carboxamide] |  | < 1 µM |
| O=C(Nc1cc(C2CCNCC2)nn1-c1ccc(C2CC2)cc1F)c1cnn2cccnc12 [Example 72, N-(1-(4-cyclopropyl-2-fluorophenyl)-3-(piperidin-4-yl)-1H-pyrazol-5-yl)pyrazolo[1,5-a]pyrimidine-3-carboxamide] | < 0.1 µM |  |
| Cc1ccc(-n2nc(C3CCCNC3)cc2NC(=O)c2cnn3cccnc23)cc1 (centres unmarked) [Example 42, N-(3-(piperidin-3-yl)-1-(p-tolyl)-1H-pyrazol-5-yl)pyrazolo[1,5-a]pyrimidine-3-carboxamide] |  | < 1 µM |
| Cc1ccc(-n2nc(C3CCNCC3)cc2NC(=O)c2cnn3cccnc23)c(F)c1 [Example 56, N-(1-(2-fluoro-4-methylphenyl)-3-(piperidin-4-yl)-1H-pyrazol-5-yl)pyrazolo[1,5-a]pyrimidine-3-carboxamide] | < 0.1 µM |  |
| CS(=O)(=O)N1CCC(c2cc(NC(=O)c3cnn4cccnc34)n(-c3ccc(C4CC4)cc3)n2)CC1 [Example 53, N-(1-(4-cyclopropylphenyl)-3-(1-(methylsulfonyl)piperidin-4-yl)-1H-pyrazol-5-yl)pyrazolo[1,5-a]pyrimidine-3-carboxamide] | < 0.1 µM |  |
| CNS(=O)(=O)c1ccc(-c2cc(NC(=O)c3cnn4cccnc34)n(-c3ccc(C)cc3F)n2)cc1 [Example 100, N-(1-(2-fluoro-4-methylphenyl)-3-(4-(N-methylsulfamoyl)phenyl)-1H-pyrazol-5-yl)pyrazolo[1,5-a]pyrimidine-3-carboxamide] | < 0.1 µM |  |
| Cc1ccccc1-n1nc(C2CCNCC2)cc1NC(=O)c1cnn2cccnc12 [Example 14, N-(3-(piperidin-4-yl)-1-(o-tolyl)-1H-pyrazol-5-yl)pyrazolo[1,5-a]pyrimidine-3-carboxamide] |  | > 1 µM |
| CC(C)N1CC(c2cc(NC(=O)c3cnn4cccnc34)n(-c3ccc(C4CC4)cc3F)n2)C1 [Example 88, N-(1-(4-cyclopropyl-2-fluorophenyl)-3-(1-isopropylazetidin-3-yl)-1H-pyrazol-5-yl)pyrazolo[1,5-a]pyrimidine-3-carboxamide] | < 0.1 µM |  |
| CC(C)N1CCC(c2cc(NC(=O)c3cnn4cccnc34)n(-c3ncc[nH]3)n2)CC1 [Example 187, N-(1-(1H-imidazol-2-yl)-3-(1-isopropylpiperidin-4-yl)-1H-pyrazol-5-yl)pyrazolo[1,5-a]pyrimidine-3-carboxamide] |  | < 1 µM |
| Cc1ccc(-n2nc(C3CCC(=O)CC3)cc2NC(=O)c2cnn3cccnc23)cc1 [Example 1, N-(3-(4-oxocyclohexyl)-1-p-tolyl-1H-pyrazol-5-yl)pyrazolo[1,5-a]pyrimidine-3-carboxamide] | < 0.1 µM |  |
| CC(C)(CN)c1ccc(-n2nc(C3CCN(S(C)(=O)=O)CC3)cc2NC(=O)c2cnn3cccnc23)nc1 [Example 158, N-(1-(5-(1-amino-2-methylpropan-2-yl)pyridin-2-yl)-3-(1-(methylsulfonyl)piperidin-4-yl)-1H-pyrazol-5-yl)pyrazolo[1,5-a]pyrimidine-3-carboxamide] | < 0.1 µM |  |
| Cc1ccc(-n2nc(C3CCNCC3)cc2NC(=O)c2cnn3cc(Br)cnc23)cc1 [Example 107, 6-bromo-N-(3-(piperidin-4-yl)-1-(p-tolyl)-1H-pyrazol-5-yl)pyrazolo[1,5-a]pyrimidine-3-carboxamide] |  | < 1 µM |
| Cc1ccc(-n2nc(C3CCN(C4CC(C(C)(C)C)C4)CC3)cc2NC(=O)c2cnn3cccnc23)cc1 (centres unmarked) [Example 256, N-{3-[1-(3-tert-butylcyclobutyl)piperidin-4-yl]-1-(4-methylphenyl)-1H-pyrazol-5-yl}pyrazolo[1,5-a]pyrimidine-3-carboxamide] | < 0.1 µM |  |
| Cc1ccc(-n2nc(C3CCN(C4CCC(C(F)(F)F)CC4)CC3)cc2NC(=O)c2cnn3cccnc23)nc1 (centres unmarked) [Example 271, N-[1-(5-methylpyridin-2-yl)-3-{1-[4-(trifluoromethyl)cyclohexyl]piperidin-4-yl}-1H-pyrazol-5-yl]pyrazolo[1,5-a]pyrimidine-3-carboxamide] | < 0.1 µM |  |
| Cc1ccc(-n2nc(C3CNC3)cc2NC(=O)c2cnn3cccnc23)cc1 [Example 82, N-(3-(azetidin-3-yl)-1-(p-tolyl)-1H-pyrazol-5-yl)pyrazolo[1,5-a]pyrimidine-3-carboxamide] |  | > 1 µM |
| COCCOC(=O)N1CC(N2CCC(c3cc(NC(=O)c4cnn5cccnc45)n(-c4ccc(C)cc4)n3)CC2)C1 [Example 242, 2-methoxyethyl 3-(4-{1-(4-methylphenyl)-5-[(pyrazolo[1,5-a]pyrimidin-3-ylcarbonyl)amino]-1H-pyrazol-3-yl}piperidin-1-yl)azetidine-1-carboxylate] |  | < 1 µM |
| Cc1ccc(-n2nc(-c3cccnc3)cc2NC(=O)c2cnn3cccnc23)cc1 [Example 123, N-(3-(pyridin-3-yl)-1-(p-tolyl)-1H-pyrazol-5-yl)pyrazolo[1,5-a]pyrimidine-3-carboxamide] | < 0.1 µM |  |
| CC(=O)N1CCC(c2cc(NC(=O)c3cnn4cccnc34)n(-c3ccc(C)cc3)n2)CC1 [Example 31, N-(3-(1-acetylpiperidin-4-yl)-1-(p-tolyl)-1H-pyrazol-5-yl)pyrazolo[1,5-a]pyrimidine-3-carboxamide] |  | < 1 µM |
| Cc1ccc(-n2nc(C3CCN(C(C)C)CC3)cc2NC(=O)c2cnn3cccnc23)nc1 [Example 270, N-{3-[1-(1-methylethyl)piperidin-4-yl]-1-(5-methylpyridin-2-yl)-1H-pyrazol-5-yl}pyrazolo[1,5-a]pyrimidine-3-carboxamide] | < 0.1 µM |  |
